Results taken from article PMC12046209, “Structure, Oligomerization, and Thermal Stability of a Recently Discovered Old Yellow Enzyme” (Proteins, 2025).

Biological target: T1, FOYE (Old Yellow Enzyme from Ferrovum sp. JA12) (Ferrovum sp., UniProt Z9U1E9MGE1)
T1 construct: pET-28a(+), N-terminal 6xHis tag with thrombin site (removal not described; two tag residues visible in crystal); E. coli BL21(DE3) Star pLysS; homotetramer
T1 sequence (Z9U1E9MGE1 20-373): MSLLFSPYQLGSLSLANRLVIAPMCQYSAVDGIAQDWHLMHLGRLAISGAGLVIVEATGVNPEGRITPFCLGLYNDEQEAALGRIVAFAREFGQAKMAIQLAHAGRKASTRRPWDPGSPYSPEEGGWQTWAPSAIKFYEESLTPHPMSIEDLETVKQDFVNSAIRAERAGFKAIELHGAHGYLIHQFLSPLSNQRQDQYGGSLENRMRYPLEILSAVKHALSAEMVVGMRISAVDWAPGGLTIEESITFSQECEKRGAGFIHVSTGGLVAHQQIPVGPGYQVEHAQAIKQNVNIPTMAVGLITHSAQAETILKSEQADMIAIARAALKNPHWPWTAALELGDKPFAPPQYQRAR
Experiment: X-ray crystal structure
Type: binding
Details: co-purified cofactor, present in all four protomers; crystals from Morpheus II condition E4, 20°C

Structure (SMILES): Cc1cc2nc3c(=O)[nH]c(=O)nc-3n(C[C@H](O)[C@H](O)[C@H](O)COP(=O)(O)O)c2cc1C [FMN]
- X-ray crystal structure: The electron density for the FMN is clearly visible in all the protomers
